In patent publication US9302989B2 (priority 2010, dated 2016):

Biological target: NAMPT (Homo sapiens (Human), UniProt P43490)
Experiment: biochemical
Experimental: Determination of the utility of compounds having Formula (I) as binders to and inhibitors of NAMPT was performed using a Time-Resolved Fluorescence Resonance Energy Transfer (TR-FRET) binding assay.
Time-Resolved Fluorescence Resonance Energy Transfer (TR-FRET) Binding Assay of NAMPT
Plates were covered, and reactions were carried out for 2-3 hours. Plates were read with Envision (Laser Lantha low volume protocol) after 2 to 3 hours.

NAMPT, sequence (P43490 whole entry, looked up): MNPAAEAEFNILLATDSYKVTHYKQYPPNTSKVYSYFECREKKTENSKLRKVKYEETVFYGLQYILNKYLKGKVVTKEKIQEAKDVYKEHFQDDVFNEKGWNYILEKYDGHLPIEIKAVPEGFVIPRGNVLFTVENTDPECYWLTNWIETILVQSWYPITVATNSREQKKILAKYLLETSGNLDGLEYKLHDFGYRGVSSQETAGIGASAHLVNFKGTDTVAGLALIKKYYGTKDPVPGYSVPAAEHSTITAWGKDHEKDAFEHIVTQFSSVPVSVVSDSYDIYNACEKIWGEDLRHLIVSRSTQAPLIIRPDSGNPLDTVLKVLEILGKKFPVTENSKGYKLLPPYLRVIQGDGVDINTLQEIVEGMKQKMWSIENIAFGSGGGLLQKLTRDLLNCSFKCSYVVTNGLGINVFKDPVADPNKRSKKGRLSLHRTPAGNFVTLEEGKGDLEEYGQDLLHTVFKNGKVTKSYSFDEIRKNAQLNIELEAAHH

CC(C)CCC(=O)Nc1ccc(NC(=O)N2Cc3ccccc3C2)cc1 [Example 294, N-{4-[(4-methylpentanoyl)amino]phenyl}-1,3-dihydro-2H-isoindole-2-carboxamide]
IC50: 8.14 nM
